# According to patent US20240131007A1, “METHODS AND COMPOSITIONS FOR PICORNAVIRUS ANTI-VIRAL AGENTS” (University of Connecticut, priority 2022, published 2024):
# Test system: not listed separately
# Test: in vitro
# Conditions: African green monkey, CC50 (μM)
row,Compound,CC50 at 3 days
1,"COc1ccc(CCNC(=O)C(=O)c2c(-c3ccccc3)[nH]c3ccccc23)cc1OC [Compound T6, N-[2-(3,4-dimethoxyphenyl)ethyl]-2-oxo-2-(2-phenyl-1H-indol-3-yl)acetamide]",> 200 µM
2,"Cc1ccc2[nH]c(-c3ccc(NC(=O)CCC(=O)O)cc3)nc2c1 [Compound 5, 4-{[4-(5-methyl-1H-benzimidazol-2-yl)phenyl]amino}-4-oxobutanoic acid]",> 400 µM
3,"O=C(Nc1cccc(-c2nc3ccccc3[nH]2)c1)c1cc2ccccc2o1 [Compound 67, N-[3-(1H-benzimidazol-2-yl)phenyl]-1-benzofuran-2-carboxamide]",43 µM
4,"CCC(=O)Nc1ccc(-c2nc3ccc(Cl)cc3[nH]2)cc1 [Compound 32, N-[4-(6-chloro-1H-benzimidazol-2-yl)phenyl]propanamide]",> 400 µM
5,"O=C(CSCc1ccc([N+](=O)[O-])cc1)Nc1ccc(-c2nc3ccccc3[nH]2)cc1 [Compound 21, N-[4-(1H-benzimidazol-2-yl)phenyl]-2-[(4-nitrobenzyl)thio]acetamide]",> 400 µM
6,"Cc1ccc2[nH]c(-c3ccc(NC(=O)C(F)(F)F)cc3)nc2c1 [Compound 34, 2,2,2-trifluoro-N-[4-(5-methyl-1H-benzimidazol-2-yl)phenyl]acetamide]",618 µM
7,"COc1cc(C)c(S(=O)(=O)NCCc2c(C)[nH]c3ccccc23)cc1C [Compound T2, 4-methoxy-2,5-dimethyl-N-[2-(2-methyl-1H-indol-3-yl)ethyl]benzenesulfonamide]",85.4 µM
8,"O=C(Nc1cccc(-c2nc3cc4ccccc4cc3[nH]2)c1)c1ccco1 [Compound 50, N-[3-(1H-naphtho[2,3-d]imidazol-2-yl)phenyl]-2-furamide]",562 µM
9,"Cc1ccc2[nH]c(-c3ccc(NC(=O)Cc4ccccc4)cc3)nc2c1 [Compound 39, N-[4-(5-methyl-1H-benzimidazol-2-yl)phenyl]-2-phenylacetamide]",> 400 µM
10,"O=C(Nc1ccc(-c2nc3ccccc3[nH]2)cc1)C1CCCC1 [Compound 17, N-[4-(1H-benzimidazol-2-yl)phenyl]cyclopentanecarboxamide]",266 µM
11,"CC(=O)Nc1ccc(-c2nc3ccccc3[nH]2)cc1 [Compound 1, N-[4-(1H-benzimidazol-2-yl)phenyl]acetamide]",> 400 µM
12,"O=C(Nc1ccc(-c2nc3ccccc3[nH]2)cc1)c1cccs1 [Compound 10, N-[4-(1H-benzimidazol-2-yl)phenyl]-2-thiophenecarboxamide]",210 µM
13,"c1ccc2[nH]c(-c3ccc(-c4nc5ccccc5[nH]4)cc3)nc2c1 [Compound 65, 2,2′-(1,4-phenylene)bis-1H-benzimidazole]",379 µM
14,"CC(=O)Nc1ccc(-c2nc3cc4ccccc4cc3[nH]2)cc1 [Compound 47, N-[4-(1H-naphtho[2,3-d]imidazol-2-yl)phenyl]acetamide]",477 µM
15,"O=C(CCc1ccccc1)Nc1ccc(-c2nc3cc4ccccc4cc3[nH]2)cc1 [Compound 49, N-[4-(1H-naphtho[2,3-d]imidazol-2-yl)phenyl]-3-phenylpropanamide]",154 µM
16,"Cc1ccc2[nH]c(-c3ccc(N)cc3)nc2c1 [Compound 59, 4-(5-methyl-1H-benzimidazol-2-yl)aniline]",189 µM
17,"O=C(Nc1ccc(-c2nc3ccccc3[nH]2)cc1)c1ccc(-c2ccc(Cl)cc2)o1 [Compound 26, N-[4-(1H-benzimidazol-2-yl)phenyl]-5-(4-chlorophenyl)-2-furamide]",44.3 µM
18,"CC(=O)Nc1ccc(C(=O)Nc2ccc(-c3nc4ccccc4[nH]3)cc2)cc1 [Compound 3, 4-(acetylamino)-N-[4-(1H-benzimidazol-2-yl)phenyl]benzamide]",> 400 µM

# Test system: EV-A71
# Test: CPE inhibition assay (Cell Titer Glo) against EV-A71 in Vero cells
# Assay type: cell-based, Enterovirus A71
# Conditions: Enterovirus A, EVA71; EV-A71, Vero cells; read-out: IC50 for inhibition of virus-induced CPE
row,Compound,IC50
1,"CCCCOc1cc(C(=O)NCCN(CC)CC)c2ccccc2n1 [Dibucaine, reference compound]",4.5 µM

# Same assay, conditions: Enterovirus A, EVA71; Table 6; EV-A71, Vero cells; read-out: IC50
row,Compound,IC50
1,"COc1ccc(CCNC(=O)C(=O)c2c(-c3ccccc3)[nH]c3ccccc23)cc1OC [Compound T6, N-[2-(3,4-dimethoxyphenyl)ethyl]-2-oxo-2-(2-phenyl-1H-indol-3-yl)acetamide]",44.2 µM
2,"COc1cc(C)c(S(=O)(=O)NCCc2c(C)[nH]c3ccccc23)cc1C [Compound T2, 4-methoxy-2,5-dimethyl-N-[2-(2-methyl-1H-indol-3-yl)ethyl]benzenesulfonamide]",17 µM

# Same assay, conditions: Enterovirus A, EVA71; Table 8; virus-induced CPE, EV-A71, Vero cells; read-out: IC50
row,Compound,IC50
1,"O=C(Nc1ccc(-c2nc3ccccc3[nH]2)cc1)c1cccs1 [Compound 10, N-[4-(1H-benzimidazol-2-yl)phenyl]-2-thiophenecarboxamide]",5 µM
2,"c1ccc2[nH]c(-c3ccc(-c4nc5ccccc5[nH]4)cc3)nc2c1 [Compound 65, 2,2′-(1,4-phenylene)bis-1H-benzimidazole]",2.17 µM
3,"CC(=O)Nc1ccc(-c2nc3cc4ccccc4cc3[nH]2)cc1 [Compound 47, N-[4-(1H-naphtho[2,3-d]imidazol-2-yl)phenyl]acetamide]",4.22 µM

# Same assay, conditions: Enterovirus A, EVA71; Table 10, Scaffold 1; EV-A71, Vero cells; read-out: IC50
row,Compound,IC50
1,"Cc1ccc2[nH]c(-c3ccc(NC(=O)CCC(=O)O)cc3)nc2c1 [Compound 5, 4-{[4-(5-methyl-1H-benzimidazol-2-yl)phenyl]amino}-4-oxobutanoic acid]",> 25 µM
2,"CCC(=O)Nc1ccc(-c2nc3ccc(Cl)cc3[nH]2)cc1 [Compound 32, N-[4-(6-chloro-1H-benzimidazol-2-yl)phenyl]propanamide]",> 25 µM
3,"O=C(CSCc1ccc([N+](=O)[O-])cc1)Nc1ccc(-c2nc3ccccc3[nH]2)cc1 [Compound 21, N-[4-(1H-benzimidazol-2-yl)phenyl]-2-[(4-nitrobenzyl)thio]acetamide]",> 25 µM
4,"Cc1ccc2[nH]c(-c3ccc(NC(=O)C(F)(F)F)cc3)nc2c1 [Compound 34, 2,2,2-trifluoro-N-[4-(5-methyl-1H-benzimidazol-2-yl)phenyl]acetamide]",> 25 µM
5,"Cc1ccc2[nH]c(-c3ccc(NC(=O)Cc4ccccc4)cc3)nc2c1 [Compound 39, N-[4-(5-methyl-1H-benzimidazol-2-yl)phenyl]-2-phenylacetamide]",> 25 µM
6,"O=C(Nc1ccc(-c2nc3ccccc3[nH]2)cc1)C1CCCC1 [Compound 17, N-[4-(1H-benzimidazol-2-yl)phenyl]cyclopentanecarboxamide]",13.4 µM
7,"CC(=O)Nc1ccc(-c2nc3ccccc3[nH]2)cc1 [Compound 1, N-[4-(1H-benzimidazol-2-yl)phenyl]acetamide]",> 25 µM
8,"O=C(Nc1ccc(-c2nc3ccccc3[nH]2)cc1)c1ccc(-c2ccc(Cl)cc2)o1 [Compound 26, N-[4-(1H-benzimidazol-2-yl)phenyl]-5-(4-chlorophenyl)-2-furamide]",5.7 µM
9,"CC(=O)Nc1ccc(C(=O)Nc2ccc(-c3nc4ccccc4[nH]3)cc2)cc1 [Compound 3, 4-(acetylamino)-N-[4-(1H-benzimidazol-2-yl)phenyl]benzamide]",> 25 µM

# Same assay, conditions: Enterovirus A, EVA71; Table 11, Scaffold 2; EV-A71, Vero cells; read-out: IC50
row,Compound,IC50
1,"O=C(Nc1cccc(-c2nc3cc4ccccc4cc3[nH]2)c1)c1ccco1 [Compound 50, N-[3-(1H-naphtho[2,3-d]imidazol-2-yl)phenyl]-2-furamide]",> 25 µM
2,"O=C(CCc1ccccc1)Nc1ccc(-c2nc3cc4ccccc4cc3[nH]2)cc1 [Compound 49, N-[4-(1H-naphtho[2,3-d]imidazol-2-yl)phenyl]-3-phenylpropanamide]",22.1 µM

# Same assay, conditions: Enterovirus A, EVA71; Table 13, Scaffold 4; EV-A71, Vero cells; read-out: IC50
row,Compound,IC50
1,"O=C(Nc1cccc(-c2nc3ccccc3[nH]2)c1)c1cc2ccccc2o1 [Compound 67, N-[3-(1H-benzimidazol-2-yl)phenyl]-1-benzofuran-2-carboxamide]",14.9 µM
2,"Cc1ccc2[nH]c(-c3ccc(N)cc3)nc2c1 [Compound 59, 4-(5-methyl-1H-benzimidazol-2-yl)aniline]",> 25 µM

# Same assay, conditions: Table 6; CC50/IC50
row,Compound,Selectivity Index
1,"COc1ccc(CCNC(=O)C(=O)c2c(-c3ccccc3)[nH]c3ccccc23)cc1OC [Compound T6, N-[2-(3,4-dimethoxyphenyl)ethyl]-2-oxo-2-(2-phenyl-1H-indol-3-yl)acetamide]",>4.52
2,"COc1cc(C)c(S(=O)(=O)NCCc2c(C)[nH]c3ccccc23)cc1C [Compound T2, 4-methoxy-2,5-dimethyl-N-[2-(2-methyl-1H-indol-3-yl)ethyl]benzenesulfonamide]",5.03

# Same assay, conditions: Table 8; CC50/IC50
row,Compound,Selectivity Index
1,"O=C(Nc1ccc(-c2nc3ccccc3[nH]2)cc1)c1cccs1 [Compound 10, N-[4-(1H-benzimidazol-2-yl)phenyl]-2-thiophenecarboxamide]",42.06
2,"c1ccc2[nH]c(-c3ccc(-c4nc5ccccc5[nH]4)cc3)nc2c1 [Compound 65, 2,2′-(1,4-phenylene)bis-1H-benzimidazole]",174.52
3,"CC(=O)Nc1ccc(-c2nc3cc4ccccc4cc3[nH]2)cc1 [Compound 47, N-[4-(1H-naphtho[2,3-d]imidazol-2-yl)phenyl]acetamide]",113.08

# Same assay, conditions: Table 10, Scaffold 1; CC50/IC50
row,Compound,Selectivity Index
1,"O=C(Nc1ccc(-c2nc3ccccc3[nH]2)cc1)C1CCCC1 [Compound 17, N-[4-(1H-benzimidazol-2-yl)phenyl]cyclopentanecarboxamide]",19.91
2,"O=C(Nc1ccc(-c2nc3ccccc3[nH]2)cc1)c1cccs1 [Compound 10, N-[4-(1H-benzimidazol-2-yl)phenyl]-2-thiophenecarboxamide]",42.06
3,"O=C(Nc1ccc(-c2nc3ccccc3[nH]2)cc1)c1ccc(-c2ccc(Cl)cc2)o1 [Compound 26, N-[4-(1H-benzimidazol-2-yl)phenyl]-5-(4-chlorophenyl)-2-furamide]",7.77

# Same assay, conditions: Table 11, Scaffold 2; CC50/IC50
row,Compound,Selectivity Index
1,"CC(=O)Nc1ccc(-c2nc3cc4ccccc4cc3[nH]2)cc1 [Compound 47, N-[4-(1H-naphtho[2,3-d]imidazol-2-yl)phenyl]acetamide]",113.08
2,"O=C(CCc1ccccc1)Nc1ccc(-c2nc3cc4ccccc4cc3[nH]2)cc1 [Compound 49, N-[4-(1H-naphtho[2,3-d]imidazol-2-yl)phenyl]-3-phenylpropanamide]",6.99

# Same assay, conditions: Table 13, Scaffold 4; CC50/IC50
row,Compound,Selectivity Index
1,"O=C(Nc1cccc(-c2nc3ccccc3[nH]2)c1)c1cc2ccccc2o1 [Compound 67, N-[3-(1H-benzimidazol-2-yl)phenyl]-1-benzofuran-2-carboxamide]",2.89
2,"c1ccc2[nH]c(-c3ccc(-c4nc5ccccc5[nH]4)cc3)nc2c1 [Compound 65, 2,2′-(1,4-phenylene)bis-1H-benzimidazole]",174.52
